“Also recorded” adds a separate entry of the source.
Columns and labels:
[1] = system: OXA induced atopic dermatitis model; test: OXA induced atopic dermatitis (AD) model in C57BL/6 mice; format: in vivo; settings: Cpd. 4 10, 30 and 100 mg/kg po qd day 7-25; dexamethasone 25 μL of 0.09% (w/v) topical qd; compared with Vehicle
Source text: Atopic dermatitis (AD) is a chronic skin disease that presents with itching, erythema and squamous lesions. Haptenating agent oxazolone (OXA) sensitization and continuous challenge establish AD like skin inflammation.
Female C57BL/6 mice (6 weeks old) were obtained from Biocytogen Laboratory Animal Co. Ltd. Animals were housed and handled in a temperature-controlled environment with a 12-h light/12-h dark cycle. A total of 48 mice were assigned to 6 groups by randomization based on body weight.
To induce AD-like lesion, all right ears of mice except the G1 sham control group were applied with oxazolone (OXA). Briefly, skin inflammation was induced by topical administration with 25 μL of 0.8% OXA dissolved in acetone on day 0, and repeated 25 μl of 0.4% OXA three times a week from day 7 to 25. G1 sham control group was treated same volume of vehicles. Therapeutic groups as 10 mg/kg, 30 mg/kg and 100 mg/kg Cpd. 4 (po, qd, day 7 to day 25) or 25 μL of 0.09% (w/v) dexamethasone (topical, qd, day 7 to day 25) were applied to the mice. The protocols and procedures involving the care and use of animals were approved by the Institutional Animal Care and Use Committee (IACUC) at Biocytogen (Beijing, China).
Ear thickness of mice was measured before application of Oxa and every other day from day 7 to day 26. […]

[2] = system: DSS induced IBD (colitis) model; test: DSS induced inflammatory bowel disease (IBD) model in C57BL/6 mice; format: in vivo; settings: for pathological score (colon): day 8, vehicle 10.10±0.17
Source text: Female C57BL/6 mice (8 weeks old) were obtained from Beijing Vital River Laboratory Animal Co. Ltd. Animals were housed and handled in a temperature-controlled environment with a 12-h light/12-h dark cycle. A total of 50 mice were assigned to 5 groups by randomization based on body weight.
On Day 0, colitis was induced by administration of 3% DSS (dextran sodium sulfate, molecular weight 36,000-50,000) in drinking water ad libitum for 8 days. 8-week-old mice were divided into 5 groups: Group 2, DSS treatment group (vehicle, po, qd, from day 0 to day 7); Group 3, DSS with 30 mg/kg Cpd. 4 (po, qd, from day 0 to day 7); Group 4, DSS with 100 mg/kg Cpd. 4 (po, qd, from day 0 to day 7); and Group 5, DSS with 50 mg/kg Cyclosporine (po, qd, from day 0 to day 7). For the Group 1 (G1) Sham group, the mice were provided drinking water without DSS.
Clinical signs of IBD were assessed every day based on the scores of disease activity index (DAI) which was evaluated from three parameters using a scoring system from 0 to 4: stool consistency (0, normal stool; 1, soft but still formed stool; 2, soft and not formed stool; 3, very soft and wet stool; 4, watery diarrhea), bleeding score (0, negative hemoccult; 1, weak positive hemoccult; 2, positive hemoccult; 3, blood trace in stool visible; 4, gross rectal bleeding) and body weight loss (0, no body weight loos; 1, 1-5% body weight loss; 2, 6-10% body weight loss; 3, 11-20% body weight loss; 4, >20% body weight loss).
At the end of induction with DSS, the animals were euthanized, dissected and the entire colon was quickly removed and gently cleared of feces.
The entire colon was weighed, and the total length was measured. Colon weight gain and shortening is an indirect marker of inflammation. As expected, DSS increased colon weight to 243.8±10.73 mg. Cpd. […] 4 treatment (FIG. 11).
The colon of a mouse was Swiss-rolled and fixed with neutralized PFA followed by H&E staining. After that, the pathologists from WuXi clinical pathological analysis platform, who were blinded to animal ID, reviewed the H&E staining and scored. The pathological scoring standards were as follows: crypt architecture (normal, 0; severe crypt distortion with loss of entire crypts, 3), degree of inflammatory cell infiltration (normal, 0; dense inflammatory infiltrate, 3), muscle thickening (normal, 0; marked muscle thickening present, 3), goblet cell depletion (absent, 0; present, 1) and crypt abscess (absent, 0; present, 1).
At the end of the study (day 8), all the animals were sacrificed by CO2, and the colon tissues were collected and fixed in 10% formalin for pathological analysis (H&E and LFB staining). The histopathological score was evaluated microscopically in a blinded manner.

[3] = Cpd. 4 30 and 100 mg/kg po qd, compared with Vehicle

## O=C(NS(=O)(=O)c1ccc(NC[C@H]2COCCO2)c([N+](=O)[O-])c1)c1ccc(N2CCN(CC3=C(c4ccc(Cl)cc4)CC4(CCC4)CC3)CC2)cc1Oc1cnc2[nH]ccc2c1 [Cpd. 4, (S)-N-((4-(((1,4-dioxan-2-yl)methyl)amino)-3-nitrophenyl)sulfonyl)-2-((1H-pyrrolo[2,3-b]pyridin-5-yl)oxy)-4-(4-((6-(4-chlorophenyl)spiro[3.5]non-6-en-7-yl)methyl)piperazin-1-yl)benzamide]
[1]
  ear thickness: significantly reducing the ear thickness; also recorded: significantly reduced
[2]; 30 mg/kg po qd day 0 to day 7, vehicle 4.81±0.08 cm
  colon length: 5.25±0.11 cm
[2]; 30 mg/kg po qd day 0 to day 7, vehicle 243.8±10.73 mg
  colon weight: 188.4 ± 10.48 mg
[2]; 30 mg/kg po qd
  pathological score (colon): 6.70±0.25
[2]; 100 mg/kg po qd
  pathological score (colon): 3.70±0.25
[2]; Cpd. 4 30 and 100 mg/kg po qd day 0 to day 7, cyclosporine 50 mg/kg po qd, compared with Vehicle
  disease activity index (DAI), clinical score of IBD: significantly reducing the clinical score; also recorded: significantly reduced
[2]; [3]
  colon length (in words): significantly increased
  colon weight (in words): significantly decreased
[2]; Cpd. 4, compared with Vehicle
  pathological score (in words): significantly decreased

Source: patent US20250152580A1, “METHODS FOR TREATING IMMUNE DISEASES” (Ascentage Pharma (Suzhou) co., Ltd., priority 2022, published 2025)
